For test [1], the system named is Ca^+2 -calmodulin dependent myosin light chain phosphorylation. Nature of the test: inhibition of Ca^+2-calmodulin dependent myosin light chain phosphorylation (MLCP). Format: biochemical. How it is done:
(§1) The data reported herein was obtained at a six minute time-point rather than the 1.5, 5 and 12 minute time points indicated in the superprecipitation assay of the Silver et al. paper.
(§2) The following examples illustrate the preparation of a representative number of compounds of this invention. After each example, and Ca^+2 antagonist activity of the compound is presented in terms of percent relaxation of aortic tissue (P.R.) at 10^-5 M concentration. […] Inhibition of superprecipitation (Antag. of Actin-Myosin interaction) is expressed as percent inhibition (mean±standard error of the mean for at least 3 separate experiments) at a compound concentration. In the same manner, inhibition of myosin light chain phosphorylation (Antag. of MLCP) is expressed as a percent inhibition at a compound concentration. Similarly, the antihypertensive activity is reported in terms of millimeters mercury (mmHg) systolic blood pressure (B.P.) reduction at the stated time post 50 mg/kg oral dosing or other dosing as indicated.

Test [2] concerns isolated paced intact rabbit atria. Nature of the test: negative inotropic (cardiac depressant) effect in isolated paced intact rabbit atria. Format: cell-based. As to conditions: for IC25: Oryctolagus cuniculus, read-out: IC25 (concentration which produces 25% inhibition of isometric force). How it is done: The potential for detrimental cardiac depressant (negative inotropic) effects of the compounds of this invention was assessed in isolated paced intact rabbit atria. Left and right atria (with nodal tissue excised) were suspended vertically in a jacketed (30° C.) organ bath containing 50 ml of PSS and aerated with 95% O2 /5% CO2. Muscles (N=5-9/compound) were stimulated at a frequency of 3 Hz with a WPI stimulator for a 60 minute equilibration period. Changes in isometric force were recorded as described for the aortic smooth muscle experiments,supra. Following equilibration, the test compound (or as a control, the ethanol vehicle) was added to the organ bath in a cumulative manner from doses ranging from 10^-9 M to 10^-5 M (10^-5 M was the maximum dose which could be attained due to the depressant effect of ethanol) and effects on developed isometric force were determined.
as §2

Test [3] has as its system spontaneously hypertensive rats. Nature of the test: decrease in systolic blood pressure of spontaneously hypertensive rats. Format: in vivo, rat.
The subject of test [4] is arterial actin-myosin interactions. Nature of the test: inhibition of superprecipitation (antagonism of arterial actin-myosin interaction). Type of test: biochemical. As to conditions: six minute time-point, mean±SEM. How it is done: as §1, §2
The mark [5] stands for this setting: 3 Hz, cumulative 10^-9 M to 10^-5 M.

Data on 10 compounds can be found in patent publication US4596873A, “1,4,5,6,7,8-Hexahydro-2-alkyl-4-aryl-5-oxo-1,7-naphthyridine-3-carboxyl ic acid aromatic esters and pharmaceutically acceptable acid addition salts thereof useful as antihypertensive agents” (American Home Products Corporation, priority 1985, dated 1986).

`CC1=C(C(=O)OCCOc2ccccc2)C(c2c(F)c(F)c(F)c(F)c2F)C2=C(CNCC2=O)N1` (single isomer, unassigned; (+)) [Example 4, (+)-1,4,5,6,7,8-Hexahydro-2-methyl-5-oxo-4-(pentafluorophenyl)-1,7-naphthyridine-3-carboxylic acid 2-phenoxyethyl ester]: the figures for the “inhibition of myosin light chain phosphorylation (Antag. of MLCP)” value (“inhibition … (Antag. of MLCP)” for short) in test [1] (50 μM) and in test [1] (100 μM) were 37% and 67%, respectively. Moreover, the “IC25 (concentration which produces 25% inhibition of isometric force)” value in test [2] (setting [5]) worked out at 800 nM. Further, the “systolic blood pressure (B.P.) reduction” value is given as -58 mmHg in test [3] (25 mg/kg, 1.5 hours) and -78 mmHg in test [3] (25 mg/kg, 4 hours). The “inhibition of superprecipitation (Antag. of Actin-Myosin)” value (shortened to “inhibition of superprecipitation”) in test [4] (50 μM) is listed as 38%; in test [4] (100 μM) it was 71%.

As to `COC(COC(=O)C1=C(C)NC2=C(C(=O)CNC2)C1c1c(F)c(F)c(F)c(F)c1F)c1ccccc1` (stereo not shown) [Example 5, 1,4,5,6,7,8-Hexahydro-2-methyl-5-oxo-4-(pentafluorophenyl)-1,7-naphthryridine-3-carboxylic acid 2-methoxy-2-phenylethyl ester], the “inhibition … (Antag. of MLCP)” value in test [1] (25 μM) is listed as 21±3%; in test [1] (50 μM), 48±2%; in test [1] (100 μM) it was 70±3%. Besides, the IC25 in test [2] (setting [5]) turned out to be 1 µM. For the same compound, the “systolic blood pressure (B.P.) reduction” value in test [3] (5 mg/kg, 1.5 hours) is -44 mmHg; in test [3] (5 mg/kg, 4 hours), -38 mmHg; in test [3] (10 mg/kg, 1.5 hours), -41 mmHg; in test [3] (10 mg/kg, 4 hours) it was -68 mmHg; in test [3] (25 mg/kg, 1.5 hours), -60 mmHg; in test [3] (25 mg/kg, 4 hours), -72 mmHg. The figures for the “inhibition of superprecipitation” value in test [4] (25 μM), in test [4] (50 μM) and in test [4] (100 μM) were 20±5%, 50±5% and 75±4%, respectively.

As to `CO[C@H](COC(=O)C1=C(C)NC2=C(C(=O)CNC2)C1c1c(F)c(F)c(F)c(F)c1F)c1ccccc1` (stereo partly drawn) [Example 7, 1,4,5,6,7,8-Hexahydro-2-methyl-5-oxo-4-(pentafluorophenyl)-1,7-naphthyridine-3-carboxylic acid (S)-2-methoxy-2-phenylethyl ester], the “inhibition … (Antag. of MLCP)” value in test [1] (50 μM) amounted to 59%; in test [1] (100 μM) it was 74%. The IC25 in test [2] (setting [5]) was 6.5 µM. The “systolic blood pressure (B.P.) reduction” value was -51 mmHg in test [3] (10 mg/kg, 1.5 hours) and -54 mmHg in test [3] (10 mg/kg, 4 hours). For the same compound, the “inhibition of superprecipitation” value in test [4] (50 μM) was 67%; in test [4] (100 μM), 80%.

Consider `CC1=C(C(=O)OCCOc2cccc(Cl)c2Cl)C(c2c(F)c(F)c(F)c(F)c2F)C2=C(CNCC2=O)N1` (stereo not shown) [Example 22, 1,4,5,6,7,8-Hexahydro-2-methyl-5-oxo-4-(pentafluorophenyl)-1,7-naphthyridine-3-carboxylic acid 2-(2,3-dichlorophenoxy)ethyl ester], for which the “inhibition … (Antag. of MLCP)” value is recorded as 25% in test [1] (10 μM), 54±2.5% in test [1] (25 μM), 73±1.5% in test [1] (50 μM) and 74±2% in test [1] (100 μM). Further, the IC25 in test [2] (setting [5]) was 1 µM. For the same compound, the “systolic blood pressure (B.P.) reduction” value in test [3] (25 mg/kg, 1.5 hours) is recorded as -37 mmHg; in test [3] (25 mg/kg, 4 hours), -52 mmHg. In addition, the “inhibition of superprecipitation” value in test [4] (10 μM) stood at 30±3%; in test [4] (25 μM), 54±3%; in test [4] (50 μM) it was 75±4%; in test [4] (100 μM) it was 78±1%.

For `CC1=C(C(=O)OCCOc2ccccc2)C(c2c(F)ccc(C)c2Cl)C2=C(CNCC2=O)N1` (stereo not shown) [Example 23, 4-(2-chloro-6-fluoro-3-methylphenyl)-1,4,5,6,7,8-hexahydro-2-methyl-5-oxo-1,7-naphthyridine-3-carboxylic acid 2-phenoxyethyl ester], the “inhibition … (Antag. of MLCP)” value was 18% in test [1] (50 μM) and 56% in test [1] (100 μM). The “systolic blood pressure (B.P.) reduction” value in test [3] (25 mg/kg, 1.5 hours) was -22 mmHg; in test [3] (25 mg/kg, 4 hours), -31 mmHg. The “inhibition of superprecipitation” value in test [4] (50 μM) was determined as 23%; in test [4] (100 μM), 62%.

`CC1=C(C(=O)OCCOc2ccccc2)C(c2c(F)ccc(Cl)c2Cl)C2=C(CNCC2=O)N1` (stereo not shown) [Example 24, 4-(2,3-Dichloro-6-fluorophenyl)-1,4,5,6,7,8-hexahydro-2-methyl-5-oxo-1,7-naphthyridine-3-carboxylic acid 2-phenoxyethyl ester]: the “inhibition … (Antag. of MLCP)” value in test [1] (25 μM) is 8±2%; in test [1] (50 μM), 50±2%; in test [1] (100 μM), 68±1%. The “systolic blood pressure (B.P.) reduction” value in test [3] (5 mg/kg, 1.5 hours) is listed as -17 mmHg; in test [3] (5 mg/kg, 4 hours), -26 mmHg; in test [3] (10 mg/kg, 1.5 hours) it was -6 mmHg; in test [3] (10 mg/kg, 4 hours), -26 mmHg; in test [3] (25 mg/kg, 1.5 hours), -50 mmHg; in test [3] (25 mg/kg, 4 hours), -70 mmHg. The “inhibition of superprecipitation” value in test [4] (25 μM) was 9±2%; in test [4] (50 μM), 54±3%; in test [4] (100 μM) it was 72±1%.

In the case of `COc1ccc(CCN(C)CCCC(C#N)(c2ccc(OC)c(OC)c2)C(C)C)cc1OC` (stereo not shown) [Verapamil, reference compound], the “cardiac depression / negative inotropism (in words)” value in test [2] is reported as “direct negative inotropism”.

`CCOC(=O)C1=C(C)NC(C)=C(C(=O)OC)C1c1cccc(Cl)c1Cl` (stereo not shown) [felodipine]: in test [2], the “cardiac depression / negative inotropism (in words)” value is recorded as “direct negative inotropism”. In addition, the IC25 in test [2] (setting [5]) turned out to be 0.8 µM.

For the compound `COC(=O)C1=C(C)NC(C)=C(C(=O)OC)C1c1ccccc1[N+](=O)[O-]` [nifedipine, reference compound], the “cardiac depression / negative inotropism (in words)” value in test [2] is listed as “direct negative inotropism”.

Consider `CCOC(=O)C1=C(C)NC(C)=C(C(=O)OC)C1c1cccc([N+](=O)[O-])c1` (stereo not shown) [nitrendipine, reference compound], for which the “cardiac depression / negative inotropism (in words)” value in test [2] was “direct negative inotropism”.
